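Following 48 hours of exposure in 96-well plates, responses at five concentrations were used to interpolate endpoints linearly. At the GI50, growth is halved.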 Calls of active or inactive are those of the source. Rule as the data show it: active = GI50 up to about 1.1 µM and inactive = higher.
Legend:
Test in all cases: inhibition of tumour cell growth, NCI panel, 48 h
RPMI-8226 = test system: RPMI-8226
COLO 205 = test system: COLO 205
HL-60 = test system: HL-60
HOP-62 = test system: HOP-62
KM12 = test system: KM12
IGROV-1 = test system: IGROV-1
SR = test system: SR
U-251 = test system: U-251
SNB-75 = test system: SNB-75
Malme-3M = test system: Malme-3M
SK-MEL-5 = test system: SK-MEL-5
SF-295 = test system: SF-295
SF-539 = test system: SF-539
SNB-19 = test system: SNB-19
TK-10 = test system: TK-10
OVCAR-4 = test system: OVCAR-4
RXF 393 = test system: RXF 393

Measured: GI50

O=C1C(=O)N(c2ccc(Cl)cc2Cl)C(=O)C(=O)C1c1nc2ccccc2o1
inactive: RPMI-8226 > 100 µM | COLO 205 > 100 µM | HL-60 > 100 µM | HOP-62 > 100 µM | KM12 > 100 µM | IGROV-1 > 100 µM | SR > 100 µM | U-251 > 100 µM | SNB-75 > 100 µM | Malme-3M > 100 µM | SK-MEL-5 > 100 µM | SF-295 > 100 µM | SF-539 > 100 µM | SNB-19 > 100 µM | TK-10 > 100 µM | OVCAR-4 > 100 µM

CCOC(=O)c1cnc2c(ccc3ncccc32)c1OCC
inactive: COLO 205 > 100 µM | HL-60 > 100 µM | HOP-62 > 100 µM | KM12 > 100 µM | IGROV-1 > 100 µM | SR 70.6 µM | RXF 393 82 µM | U-251 > 100 µM | SNB-75 > 100 µM | Malme-3M > 100 µM | SK-MEL-5 > 100 µM | SF-539 > 100 µM | SNB-19 > 100 µM | TK-10 60.5 µM | OVCAR-4 > 100 µM

O=C1NC2C(CCO)CC=C[C@H]2c2cc3c(cc21)OCO3 (stereo partly drawn)
inactive: RPMI-8226 > 100 µM | COLO 205 > 100 µM | HL-60 > 100 µM | HOP-62 > 100 µM | KM12 > 100 µM | IGROV-1 > 100 µM | SR > 100 µM | RXF 393 > 100 µM | U-251 > 100 µM | SNB-75 > 100 µM | Malme-3M > 100 µM | SF-295 > 100 µM | SF-539 > 100 µM | SNB-19 > 100 µM | TK-10 > 100 µM

COC(=O)C(C(=O)OC)C1CCCC(=O)C1 (stereo not drawn)
inactive: RPMI-8226 > 100 µM | COLO 205 > 100 µM | HL-60 > 100 µM | HOP-62 > 100 µM | KM12 > 100 µM | IGROV-1 > 100 µM | SR > 100 µM | RXF 393 > 100 µM | U-251 > 100 µM | SNB-75 > 100 µM | Malme-3M > 100 µM | SK-MEL-5 > 100 µM | SF-295 > 100 µM | SF-539 > 100 µM | SNB-19 > 100 µM | TK-10 > 100 µM | OVCAR-4 > 100 µM

C/C(=N/O)C1CC=C(S(=O)(=O)c2ccccc2)C1 (stereo not drawn)
inactive: RPMI-8226 > 100 µM | COLO 205 > 100 µM | HL-60 > 100 µM | HOP-62 > 100 µM | KM12 > 100 µM | IGROV-1 > 100 µM | SR > 100 µM | RXF 393 > 100 µM | U-251 > 100 µM | SNB-75 > 100 µM | Malme-3M > 100 µM | SF-295 > 100 µM | SF-539 > 100 µM | SNB-19 > 100 µM | TK-10 > 100 µM | OVCAR-4 > 100 µM

CC(C)(C)C1CCC2c3c([nH]c4ncccc34)C3C(=O)N(c4ccccc4)C(=O)C3C2C1 (stereo not drawn)
inactive: RPMI-8226 > 100 µM | COLO 205 > 100 µM | HL-60 65.9 µM | HOP-62 > 100 µM | KM12 > 100 µM | IGROV-1 > 100 µM | SR 36.1 µM | RXF 393 > 100 µM | U-251 > 100 µM | SNB-75 24.6 µM | Malme-3M > 100 µM | SK-MEL-5 > 100 µM | SF-295 > 100 µM | SF-539 > 100 µM | SNB-19 > 100 µM | TK-10 > 100 µM | OVCAR-4 > 100 µM

Cc1cc(C)nc(NS(=O)(=O)c2ccc(NC(=O)c3cccc4c(=O)c5ccccc5[nH]c34)cc2)n1
inactive: RPMI-8226 10.9 µM | COLO 205 18.3 µM | HL-60 16.6 µM | HOP-62 20.1 µM | KM12 17 µM | IGROV-1 26.1 µM | SR 24.8 µM | U-251 16.5 µM | SNB-75 18.5 µM | Malme-3M 17.9 µM | SK-MEL-5 11.7 µM | SF-295 19.8 µM | SF-539 18.4 µM | SNB-19 27.2 µM | TK-10 25.9 µM | OVCAR-4 18.5 µM

O=C1C2=C(CC3C(C2)C3(Br)Br)C(=O)C2=C1CC1C(C2)C1(Br)Br (stereo not drawn)
inactive: COLO 205 > 100 µM | HL-60 > 100 µM | HOP-62 > 100 µM | KM12 > 100 µM | IGROV-1 > 100 µM | SR > 100 µM | RXF 393 > 100 µM | U-251 > 100 µM | SNB-75 > 100 µM | Malme-3M > 100 µM | SK-MEL-5 > 100 µM | SF-295 > 100 µM | SF-539 > 100 µM | SNB-19 > 100 µM | TK-10 > 100 µM | OVCAR-4 > 100 µM

COC(=O)c1cc(-c2ccc(OC)c(OC)c2)oc1-c1ccc(OC)c(OC)c1
inactive: RPMI-8226 33.3 µM | COLO 205 19.5 µM | HL-60 64.7 µM | HOP-62 35.7 µM | KM12 41.6 µM | IGROV-1 45.5 µM | SR 28.6 µM | RXF 393 19.1 µM | U-251 30.6 µM | SNB-75 33.5 µM | Malme-3M 43.7 µM | SK-MEL-5 > 10 µM | SF-295 23.8 µM | SF-539 21.2 µM | TK-10 53.8 µM | OVCAR-4 62.5 µM

CSc1ccc(-c2cn3ccsc3n2)c(O)c1
inactive: RPMI-8226 13.8 µM | COLO 205 > 44.5 µM | HL-60 17 µM | HOP-62 49.9 µM | KM12 > 56.5 µM | IGROV-1 > 100 µM | SR 40.6 µM | U-251 46 µM | SNB-75 35.6 µM | Malme-3M > 61.1 µM | SK-MEL-5 41 µM | SF-295 39 µM | SF-539 32.7 µM | SNB-19 > 61.5 µM | TK-10 61.8 µM | OVCAR-4 > 49.4 µM

CCC(O)CCCCCCCCCCCCCCC(=O)O (stereo not drawn)
inactive: RPMI-8226 66.8 µM | COLO 205 > 100 µM | HL-60 24.8 µM | HOP-62 > 100 µM | KM12 61.8 µM | IGROV-1 > 100 µM | SR 49.9 µM | RXF 393 > 100 µM | U-251 > 100 µM | SNB-75 > 100 µM | Malme-3M > 100 µM | SK-MEL-5 18.8 µM | SF-295 > 100 µM | SF-539 > 100 µM | SNB-19 > 100 µM | TK-10 > 100 µM | OVCAR-4 > 100 µM

CN(C)c1ccc(C(C#N)NNC(=O)Cc2ccccc2)cc1 (stereo not drawn)
inactive: RPMI-8226 > 100 µM | COLO 205 > 100 µM | HL-60 > 100 µM | HOP-62 > 100 µM | KM12 > 100 µM | IGROV-1 > 100 µM | SR > 100 µM | RXF 393 > 100 µM | U-251 > 100 µM | SNB-75 > 100 µM | Malme-3M > 100 µM | SK-MEL-5 > 100 µM | SF-295 > 100 µM | SF-539 > 100 µM | TK-10 > 100 µM | OVCAR-4 > 100 µM

CCN(CC)CCCNC(=O)Cc1ccccc1Nc1c(Cl)cccc1Cl
inactive: RPMI-8226 12.4 µM | COLO 205 13.7 µM | HL-60 11.8 µM | HOP-62 16 µM | KM12 19.8 µM | IGROV-1 18.4 µM | SR 9.48 µM | RXF 393 15.8 µM | U-251 13 µM | SNB-75 8.75 µM | SK-MEL-5 3.85 µM | SF-295 18 µM | SF-539 14.2 µM | SNB-19 16.9 µM | TK-10 13.7 µM | OVCAR-4 15.7 µM

CC(N)C(C)c1ccccc1 (stereo not drawn)
inactive: RPMI-8226 > 100 µM | COLO 205 > 100 µM | HL-60 > 100 µM | HOP-62 > 100 µM | KM12 > 100 µM | IGROV-1 > 100 µM | SR > 100 µM | RXF 393 > 100 µM | U-251 > 100 µM | SNB-75 > 100 µM | Malme-3M > 100 µM | SK-MEL-5 > 100 µM | SF-295 > 100 µM | SF-539 > 100 µM | SNB-19 > 100 µM | TK-10 > 100 µM | OVCAR-4 > 100 µM

COc1ccc([C@@H]2C[C@@H]3C(=O)OC(=O)[C@@H]3c3c2c2ccccc2n3C)cc1
inactive: RPMI-8226 > 100 µM | COLO 205 > 100 µM | HL-60 > 100 µM | HOP-62 > 100 µM | KM12 > 100 µM | IGROV-1 > 100 µM | SR > 100 µM | SNB-75 > 100 µM | Malme-3M > 100 µM | SF-295 > 100 µM | SF-539 > 100 µM | SNB-19 > 100 µM | TK-10 > 100 µM | OVCAR-4 > 100 µM

CC[N+](CC)(CC)Cc1cn(S(=O)(=O)c2ccccc2)c2ccccc12
inactive: RPMI-8226 > 100 µM | COLO 205 > 100 µM | HL-60 > 100 µM | HOP-62 > 100 µM | KM12 > 100 µM | IGROV-1 > 100 µM | SR > 100 µM | U-251 > 100 µM | SNB-75 40.7 µM | Malme-3M > 100 µM | SK-MEL-5 > 100 µM | SF-295 > 100 µM | SF-539 > 100 µM | SNB-19 > 100 µM | TK-10 > 100 µM | OVCAR-4 > 100 µM

CC(C)c1cccc(=O)c(O)c1 [HINOKITIOL]
inactive: RPMI-8226 7.93 µM | COLO 205 4.24 µM | HL-60 2.49 µM | HOP-62 10.9 µM | KM12 12.4 µM | IGROV-1 13.5 µM | SR 2.84 µM | RXF 393 25.4 µM | U-251 9.12 µM | SNB-75 24.4 µM | Malme-3M 12.6 µM | SK-MEL-5 24.5 µM | SF-295 6.52 µM | SF-539 5.31 µM | SNB-19 10.9 µM | TK-10 58.1 µM | OVCAR-4 7.23 µM
